Like-named read-outs stand apart in the source and are kept apart here.

The target of series [1] is T1, Ba/F3 ETV6-NTRK3-G623R (Homo sapiens, UniProt Q16288, G623R, cells depend on it).
T1 construct: fused on or other part: P41212 (Transcription factor ETV6)
In words: In vitro cell proliferation inhibition (MTT). The class given is cell-based, murine. To be noted: 72 h, read-out: IC50 Ba/F3 ETV6-NTRK3-G623R. The method, then: (§1) Cells in the logarithmic growth phase were harvested and counted using a […]. The cell suspension with a certain density was pipetted uniformly and seeded into a 96-well plate with each well of 100 μL, and shaken to make the cells uniformly disperse into the wells. 100 μL of compound solution with certain concentration gradient was added into each well, and 3 duplicate wells were set for each concentration. The plate was cultured in a CO2 incubator at 37° C. for 72 h. 20 μL of MTT working solution (5 mg/mL) was added into each well, and the plate was placed at 37° C. for 4 h, and centrifuged at 1000 rpm for 5 min by a plate centrifuge. After 180 μL of culture medium was discarded, the plate was added with 150 μL of DMSO, and mixed well with a microplate shaker, the plate bottom was wiped, and optical density (OD) at 550 nm was detected with a microplate reader.

In series [2] the target is T2, Ba/F3 LMNA-NTRK1-G595R (Homo sapiens, UniProt P04629, G595R, cells depend on it).
T2 construct: fused on or other part: P02545 (Prelamin-A/C)
The experiment in a line: In vitro cell proliferation inhibition (MTT). Format: cell-based, murine. To be noted: 72 h, read-out: IC50 Ba/F3 LMNA-NTRK1-G595R. The procedure:
as §1

Series [3] concerns the target T3, Ba/F3 LMNA-NTRK1-G667C (Homo sapiens, UniProt P04629, G667C, cells depend on it).
T3 construct: fused on or other part: P02545 (Prelamin-A/C)
The experiment in a line: In vitro cell proliferation inhibition (MTT). The class given is cell-based, murine. To be noted: 72 h, read-out: IC50 Ba/F3 LMNA-NTRK1-G667C. The method, then: as §1

The target of series [4] is T4, Ba/F3 ETV6-NTRK3-G696A (Homo sapiens, UniProt Q16288, G696A, cells depend on it).
T4 construct: fused on or other part: P41212 (Transcription factor ETV6)
The experiment in a line: In vitro cell proliferation inhibition (MTT). Format: cell-based, murine. To be noted: 72 h, read-out: IC50 Ba/F3 ETV6-NTRK3-G696A. The procedure:
• Source of 6 kinds of cell lines for the test: KYinno Biotechnology (Beijing) Co., Ltd. • Cell type: murine B cells • Culture medium: RPMI-1640+10% FB S 2. Test Method
as §1

Series [5] addresses T5, Ba/F3 ETV6-NTRK2 (Homo sapiens, UniProt Q16620).
T5 construct: fused on or other part: P41212 (Transcription factor ETV6)
In words: In vitro cell proliferation inhibition (MTT). Format: cell-based, murine. The procedure: as §1

Series [6] addresses T6, Ba/F3 LMNA-NTRK1 (Homo sapiens, UniProt P04629).
T6 construct: fused on or other part: P02545 (Prelamin-A/C)
The experiment in a line: In vitro cell proliferation inhibition (MTT). The class given is cell-based, murine. To be noted: 72 h, read-out: IC50 Ba/F3 LMNA-NTRK1. The method, then: as §1

The target in series [7] is T7, ALK (Homo sapiens, UniProt Q9UM73).
T7 construct: purchased Carna 08-105
The experiment in a line: Kinase inhibition assay with fluorescein labeled peptide, ALK. Format: biochemical. The procedure:
Compounds were diluted to a certain concentration in DMSO with 4-fold gradients. The compound with a certain concentration, an enzyme solution and DMSO were added into a 384-well plate, and the plate was incubated at room temperature for 10 min. […] The plate was subjected to reading.

Series [8] has as its system Ba/F3 LMNA-NTRK1-G595R model. To be noted: 100 mg/kg, gavage. The method, then:
(§2) The cells in the logarithmic growth phase were collected and re-suspending in serum-free culture medium to make the cell concentration at […] cells/mL. The cell suspension was added with equal volume of Matrigel to make the final cell concentration at 3×10^7-5×10^7 cells/mL. The animal model was established by subcutaneously inoculating 0.1 mL of tumor cell suspension in the axilla of the forelimb of NuNu mice (female, 4-6 weeks, Beijing Vital River Laboratory Animal Technology Co., Ltd.) in an amount of 3×10^6-5×10^6 cells/mouse.
(§3) The maximum and the minimum tumor diameters of the xenografts in nude mice were measured using a vernier caliper, and the tumor volume (TV) was calculated according to the formula: V=½×a×b^2, where a and b represent the maximum and minimum diameters of the tumor mass, respectively. Nude mice with appropriate tumor volume were selected and the mice were evenly divided into 7 groups of 6 mice (100-200 mm^3) by tumor volume using a random number method.
(§4) Tumor diameters were measured twice weekly and tumor volume was calculated. […] (where Ti represents the mean tumor volume of a certain administration group on a certain day; TO represents the mean tumor volume of the administration group at the start of administration, Vi represents the mean tumor volume of the vehicle control group on a certain day (same day as Ti) and V0 represents the mean tumor volume of the vehicle control group at the start of administration); • Tumor inhibition rate: at the end of the test, the animals were executed by removing the cervical vertebrae.

The test system of series [9] is Ba/F3 LMNA-NTRK1-G667C model. To be noted: gavage. The procedure: as §2, §3, §4
The mark [10] stands for this setting: 72 h, read-out: IC50 Ba/F3 ETV6-NTRK2.

Regarding `O=C(Nc1ccc(N2CCN(C(=O)C3CC3)CC2)cc1)c1cnn2ccc(N3C[C@@H](F)C[C@@H]3c3cc(F)ccc3F)nc12` [Compound 7], the GI50 is 0.499 nM in series [1], 0.156 nM in series [2], 1.78 nM in series [3] and 0.736 nM in series [4].
Consider `C[C@@H](O)C(=O)N1CCC(c2ccc(NC(=O)c3cnn4ccc(N5C[C@@H](F)C[C@@H]5c5cc(F)ccc5F)nc34)cc2)CC1` [Compound 12], for which the GI50 in series [5] (setting [10]) was found to be 1.13 nM; in [1] it was 0.237 nM; in [6], 0.635 nM; in series [2] it was 0.215 nM; in [3] it was 1.53 nM; in series [4] it was 0.112 nM.
Consider `CC(C)(O)C(=O)N1CCC(c2ccc(NC(=O)c3cnn4ccc(N5C[C@@H](F)C[C@@H]5c5cc(F)ccc5F)nc34)cc2)CC1` [Compound 13], for which the GI50 in series [3] turned out to be 1.47 nM.
On the same count and under the same terms, the value for `O=C(Nc1ccc(CN2CCN(C(=O)CO)CC2)cc1)c1cnn2ccc(N3C[C@@H](F)C[C@@H]3c3cc(F)ccc3F)nc12` [Compound 18, 5-((2R,4S)-2-(2,5-difluorophenyl)-4-fluoropyrrolidin-1-yl)-N-(4-(4-(2-(2-hydroxyacetyl)piperazin-1-yl)methyl)phenyl)pyrazolo[1,5-a]pyrimidine-3-carboxamide] was 3.43 nM.
On to `O=C(Nc1ccc(N2CCn3c(nnc3C(F)(F)F)C2)cc1)c1cnn2ccc(N3C[C@@H](F)C[C@@H]3c3cc(F)ccc3F)nc12` [Compound 23], for which the GI50 in series [1] was 0.852 nM; in series [2] it was 0.525 nM; in series [3], 4.93 nM; in series [4] it was 0.435 nM.
In the case of `CCN1CCN(c2ccc(C(=O)Nc3cnn4ccc(N5CCC[C@@H]5c5cc(F)ccc5F)nc34)cc2)CC1` [Compound D1], the GI50 in series [5] (setting [10]) is 6.09 nM; in series [1], 24.8 nM; in series [6] it was 1.6 nM; in series [2], 289 nM; in [3] it was 307 nM; in series [4], 258 nM.
Take `COc1cc(N2CCN(C)CC2)ccc1C(=O)Nc1cnn2ccc(N3CCC[C@@H]3c3cc(F)ccc3F)nc12` [Compound D2]: the GI50 was 13.4 nM in series [5] (setting [10]); 46.5 nM in [1]; 1.03 nM in series [6]; 230 nM in [2]; 42.7 nM in series [3]; 202 nM in [4].
As for `CN1CCN(Cc2ccc(C(=O)Nc3cnn4ccc(N5CCC[C@@H]5c5cc(F)ccc5F)nc34)cc2)CC1` [Compound D3], the GI50 in [5] (setting [10]) was determined as 17.4 nM; in series [1], 207 nM; in series [6] it was 8.68 nM; in series [2], 522 nM; in [3], 316 nM; in series [4] it was 542 nM.
Consider `O=C(NC1CCN(C(=O)CO)CC1)c1cnn2ccc(N3C[C@@H](F)C[C@@H]3c3cccc(F)c3)nc12` [Compound D4], for which the GI50 is 14.9 nM in series [5] (setting [10]); 17 nM in [1]; 9.52 nM in [6]; 65.9 nM in series [2]; no less than 1000 nM in series [3]; 141 nM in series [4].
In the case of `O=C(Nc1ccccc1)c1cnn2ccc(N3C[C@@H](F)C[C@@H]3c3cccc(F)c3)nc12` [Compound D5], the GI50 is 12.2 nM in series [5] (setting [10]); 13.3 nM in series [1]; 2.14 nM in series [6]; 4.59 nM in series [2]; 413 nM in [3]; 90.8 nM in series [4].
Take `C[C@@H]1CCc2ncc(F)cc2[C@H]2CCCN2c2ccn3ncc(c3n2)C(=O)N1` [LOXO-195, reference compound]: the half-maximal inhibitory concentration (IC50) (in general, the concentration that inhibits the measured activity by half) in series [7] turned out to be 391 nM. The GI50 in series [5] (setting [10]) amounted to 2.89 nM; in series [1], 4.54 nM; in [6], 9.08 nM; in series [3], 112 nM; in series [4] it was 4.5 nM. Besides, the “Number of animals (Survival/total)” value in [8] is recorded as “(6/6)”; in series [9] (100 mg/kg), “(6/6)”; in series [9] (200 mg/kg) it was “(5/6)”. The “Rate of weight gain (%)” value is on record as 8.59% in series [8], 2.38% in series [9] (100 mg/kg) and 7.88% in series [9] (200 mg/kg). In addition, the “TGI (%)” value in series [8] turned out to be 124.6%; in series [9] (100 mg/kg), 36.4%; in series [9] (200 mg/kg), 95.4%. The “Tumor volume (mm^3)” value came to 66.3 ± 37.1 mm^3 in [8], 381.2 ± 134.4 mm^3 in series [9] (100 mg/kg) and 154.5 ± 92.2 mm^3 in series [9] (200 mg/kg). Moreover, the “Tumor weight” value in series [8] worked out at 0.12 ± 0.06 g; in series [9] (100 mg/kg), 0.43 ± 0.18 g; in series [9] (200 mg/kg), 0.22 ± 0.16 g. Moreover, the “Tumor weight inhibition rate (%)” value in series [8] amounted to 76.58%; in series [9] (100 mg/kg), 21.57%; in [9] (200 mg/kg), 59.96%.
For `CN1CCN(c2ccc(C(=O)Nc3n[nH]c4ccc(Cc5cc(F)cc(F)c5)cc34)c(NC3CCOCC3)c2)CC1` [RXDX-101, Entrectinib], the GI50 in series [5] (read-out: IC50 Ba/F3 ETV6-NTRK2, 72 h) came out at 2.13 nM.
